Data taken from ChEMBL document CHEMBL3393045, “Discovery of thienoimidazole-based HCV NS5A inhibitors. Part 2: non-symmetric inhibitors with potent activity against genotype 1a and 1b” (Bioorg Med Chem Lett, 2015).

Columns and labels:
Hepatitis C virus [1] = experiment: Antiviral activity against HCV genotype 1b infected in human Huh-5.2 cells assessed as decrease in HCV replicon RNA replication after 4 days by luciferase assay; assay type: functional, cell-based, Hepacivirus hominis; conditions: Huh-5-2, 96 h
Hepatitis C virus [2] = experiment: Antiviral activity against HCV genotype 1a infected in W11.8 cells assessed as decrease in NS5A expression in replicon cell after 4 days by luminescence based ELISA; assay type: functional, Hepacivirus hominis; conditions: subtype 1a, W11.8, 96 h
[3] = Cytotoxicity against human HuhET cells by [3H]thymidine incorporation assay; assay type: cell-based
[4] = Metabolic stability in human liver microsomes assessed as remaining parent compound level at 5 uM after 30 mins in presence of NADPH and UDPGA; assay type: ADME; conditions: read-out: Stability
[5] = Metabolic stability in rat liver microsomes assessed as remaining parent compound level at 5 uM after 30 mins in presence of NADPH and UDPGA; assay type: ADME; conditions: read-out: Stability
Cytochrome P450 3A4 = Cytochrome P450 3A4 (Homo sapiens, UniProt P08684); experiment: Inhibition of CYP3A4 (unknown origin); assay type: ADME
Chain of Cytochrome P450 3A4 (P08684 whole entry): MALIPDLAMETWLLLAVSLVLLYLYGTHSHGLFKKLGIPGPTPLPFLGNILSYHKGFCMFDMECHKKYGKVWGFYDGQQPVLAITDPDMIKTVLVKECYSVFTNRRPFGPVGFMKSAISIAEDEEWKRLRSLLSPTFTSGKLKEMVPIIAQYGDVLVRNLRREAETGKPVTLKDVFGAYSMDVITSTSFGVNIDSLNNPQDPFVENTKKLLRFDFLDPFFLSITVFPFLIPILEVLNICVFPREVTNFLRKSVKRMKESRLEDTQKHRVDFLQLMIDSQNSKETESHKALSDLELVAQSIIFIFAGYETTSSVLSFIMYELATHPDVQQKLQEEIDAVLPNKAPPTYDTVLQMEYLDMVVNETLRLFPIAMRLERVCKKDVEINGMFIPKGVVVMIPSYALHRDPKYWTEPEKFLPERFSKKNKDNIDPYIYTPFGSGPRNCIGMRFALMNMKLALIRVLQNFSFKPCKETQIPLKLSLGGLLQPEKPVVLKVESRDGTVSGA

Cytochrome P450 2C9 = Cytochrome P450 2C9 (Homo sapiens, UniProt P11712); experiment: Inhibition of CYP2C9 (unknown origin); assay type: ADME
Chain of Cytochrome P450 2C9 (P11712 whole entry): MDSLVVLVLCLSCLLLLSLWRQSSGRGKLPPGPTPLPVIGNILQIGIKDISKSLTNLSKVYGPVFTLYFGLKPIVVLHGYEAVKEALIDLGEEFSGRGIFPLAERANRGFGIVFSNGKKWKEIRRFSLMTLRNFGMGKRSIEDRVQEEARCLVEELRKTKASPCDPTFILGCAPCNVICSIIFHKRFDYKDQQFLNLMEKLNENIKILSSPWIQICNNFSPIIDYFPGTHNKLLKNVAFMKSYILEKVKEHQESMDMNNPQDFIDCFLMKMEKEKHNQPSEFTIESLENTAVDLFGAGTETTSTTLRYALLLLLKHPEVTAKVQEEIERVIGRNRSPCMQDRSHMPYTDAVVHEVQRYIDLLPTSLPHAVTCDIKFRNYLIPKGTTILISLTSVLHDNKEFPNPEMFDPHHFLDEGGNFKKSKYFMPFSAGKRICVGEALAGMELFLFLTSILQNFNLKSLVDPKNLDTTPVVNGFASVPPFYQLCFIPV

Cytochrome P450 2D6 = Cytochrome P450 2D6 (Homo sapiens, UniProt P10635); experiment: Inhibition of CYP2D6 (unknown origin); assay type: ADME
Chain of Cytochrome P450 2D6 (P10635 whole entry): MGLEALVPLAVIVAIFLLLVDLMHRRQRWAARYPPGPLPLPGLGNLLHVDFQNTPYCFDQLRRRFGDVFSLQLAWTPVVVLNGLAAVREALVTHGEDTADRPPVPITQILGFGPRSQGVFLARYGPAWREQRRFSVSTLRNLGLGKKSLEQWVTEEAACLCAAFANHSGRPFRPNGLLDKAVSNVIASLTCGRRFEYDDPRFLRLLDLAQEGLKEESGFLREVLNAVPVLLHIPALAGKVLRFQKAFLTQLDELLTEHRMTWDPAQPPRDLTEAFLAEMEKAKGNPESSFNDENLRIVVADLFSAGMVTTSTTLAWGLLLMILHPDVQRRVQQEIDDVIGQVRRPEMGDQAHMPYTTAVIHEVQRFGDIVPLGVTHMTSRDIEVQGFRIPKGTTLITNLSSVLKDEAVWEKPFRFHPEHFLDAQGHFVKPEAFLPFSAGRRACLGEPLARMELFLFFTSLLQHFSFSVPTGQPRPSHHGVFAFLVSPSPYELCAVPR

[6] = molecular target: Voltage-gated inwardly rectifying potassium channel KCNH2 (Homo sapiens, UniProt Q12809); experiment: Inhibition of human ERG by Q-patch assay
Chain of Voltage-gated inwardly rectifying potassium channel KCNH2 (Q12809 whole entry): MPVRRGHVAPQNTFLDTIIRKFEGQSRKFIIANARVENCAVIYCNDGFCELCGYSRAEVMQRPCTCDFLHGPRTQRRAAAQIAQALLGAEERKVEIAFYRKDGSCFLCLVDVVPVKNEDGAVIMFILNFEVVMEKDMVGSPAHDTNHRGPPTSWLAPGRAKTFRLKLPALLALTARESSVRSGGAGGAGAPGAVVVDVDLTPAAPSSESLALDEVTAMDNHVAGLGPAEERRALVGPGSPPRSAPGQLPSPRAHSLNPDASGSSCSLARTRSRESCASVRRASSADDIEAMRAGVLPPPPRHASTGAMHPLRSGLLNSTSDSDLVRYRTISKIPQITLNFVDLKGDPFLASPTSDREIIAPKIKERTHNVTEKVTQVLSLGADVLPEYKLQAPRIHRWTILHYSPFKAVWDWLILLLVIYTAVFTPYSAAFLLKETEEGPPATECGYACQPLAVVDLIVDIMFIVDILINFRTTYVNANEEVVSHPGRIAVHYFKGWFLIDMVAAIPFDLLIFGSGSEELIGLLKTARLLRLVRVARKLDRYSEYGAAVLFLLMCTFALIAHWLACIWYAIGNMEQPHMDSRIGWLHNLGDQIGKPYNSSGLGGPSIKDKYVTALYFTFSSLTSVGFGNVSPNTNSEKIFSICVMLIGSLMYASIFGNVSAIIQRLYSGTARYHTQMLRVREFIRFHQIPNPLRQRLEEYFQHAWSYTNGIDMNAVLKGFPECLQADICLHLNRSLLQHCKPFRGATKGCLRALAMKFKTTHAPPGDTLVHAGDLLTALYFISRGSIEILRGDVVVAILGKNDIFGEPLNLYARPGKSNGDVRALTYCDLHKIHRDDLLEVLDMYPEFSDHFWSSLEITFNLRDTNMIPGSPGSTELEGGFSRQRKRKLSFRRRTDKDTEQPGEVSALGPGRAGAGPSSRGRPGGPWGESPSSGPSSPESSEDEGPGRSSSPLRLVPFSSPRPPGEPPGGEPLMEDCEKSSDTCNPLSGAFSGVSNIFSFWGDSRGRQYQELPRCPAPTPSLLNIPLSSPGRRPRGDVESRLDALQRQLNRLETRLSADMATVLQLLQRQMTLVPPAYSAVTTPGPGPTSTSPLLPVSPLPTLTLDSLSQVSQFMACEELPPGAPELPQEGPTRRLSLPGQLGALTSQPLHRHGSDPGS

Rattus norvegicus = experiment: (§1) Cmax in Sprague-Dawley rat at 3 mg/kg, po; assay type: ADME, organism-based; parameters: dose 3 mg/kg, route oral; conditions: in vivo
[7] = Clearance in Sprague-Dawley rat at 3 mg/kg, iv; assay type: ADME, organism-based; parameters: dose 3 mg/kg, route intravenous; conditions: in vivo
[8] = Half life in Sprague-Dawley rat at 3 mg/kg, iv; assay type: ADME, organism-based; parameters: dose 3 mg/kg, route intravenous; conditions: in vivo
[9] = Volume of distribution at steady state in Sprague-Dawley rat at 3 mg/kg, iv; assay type: ADME, organism-based; parameters: dose 3 mg/kg, route intravenous; conditions: in vivo, read-out: Vdss
[10] = AUC (0 to 8 hrs) in Sprague-Dawley rat at 3 mg/kg, po; assay type: ADME, organism-based; parameters: time < 8 hr, dose 3 mg/kg, route oral; conditions: plasma
[11] = Half life in Sprague-Dawley rat at 3 mg/kg, po; assay type: ADME, organism-based; parameters: dose 3 mg/kg, route oral; conditions: in vivo
[12] = as §1; assay type: ADME, organism-based; parameters: dose 3 mg/kg, route oral; conditions: Sprague-Dawley, in vivo
[13] = Oral bioavailability in Sprague-Dawley rat at 3 mg/kg; assay type: ADME, organism-based; conditions: in vivo

| SMILES | EC50 (Hepatitis C virus [1]) | EC50 (Hepatitis C virus [2]) | CC50 [3] | further results |
| --- | --- | --- | --- | --- |
| COC(=O)N[C@H](C(=O)N1C[C@@H](C)C[C@H]1c1cc2cc(-c3ccc(-c4cc5[nH]c([C@@H]6C[C@H](C)CN6C(=O)[C@@H](NC(=O)OC)C(C)C)nc5s4)cc3)ccc2[nH]1)C(C)C | 0.045 nM | 100 nM | > 20000 nM | – |
| COC(=O)N[C@H](C(=O)N1CCC[C@H]1c1nc2cc(C#Cc3cc4[nH]c([C@@H]5CCCN5C(=O)[C@@H](NC(=O)OC)C(C)C)nc4s3)ccc2[nH]1)C(C)C | 0.215 nM | 828 nM | – | – |
| COC(=O)N[C@H](C(=O)N1C[C@@H](C)C[C@H]1c1nc2sc(-c3ccc(-c4ccc5oc([C@@H]6C[C@H](C)CN6C(=O)[C@@H](NC(=O)OC)C(C)C)nc5c4)cc3)cc2[nH]1)C(C)C | 0.115 nM | 18 nM | > 20000 nM | – |
| COC(=O)N[C@H](C(=O)N1C[C@@H](C)C[C@H]1c1nc2sc(-c3ccc(-c4ccc5c(c4)nc([C@@H]4C[C@H](C)CN4C(=O)[C@@H](NC(=O)OC)C(C)C)n5C)cc3)cc2[nH]1)C(C)C | 0.019 nM | 13 nM | > 20000 nM | – |
| COC(=O)N[C@H](C(=O)N1C[C@@H](C)C[C@H]1c1ncc(-c2ccc(-c3ccc(-c4cc5[nH]c([C@@H]6C[C@H](C)CN6C(=O)[C@@H](NC(=O)OC)C(C)C)nc5s4)cc3)cc2)[nH]1)C(C)C | – | – | > 20000 nM | remaining at 0.5 h, 5 µM [4]: 90%; remaining at 0.5 h, 5 µM [5]: 100%; IC50 (Cytochrome P450 3A4): > 30000 nM; IC50 (Cytochrome P450 2C9): > 30000 nM; IC50 (Cytochrome P450 2D6): > 30000 nM; IC50 [6]: > 40000 nM; Cmax (Rattus norvegicus): 30 ng/mL |
| COC(=O)N[C@H](C(=O)N1C[C@@H](C)C[C@H]1c1ncc(-c2ccc(-c3ccc(-c4cc5[nH]c([C@@H]6C[C@H](C)CN6C(=O)[C@@H](NC(=O)OC)C(C)C)nc5s4)c(F)c3)cc2)[nH]1)C(C)C | 0.002 nM | 0.023 nM | > 20000 nM | – |
| COC(=O)N[C@H](C(=O)N1C[C@@H](C)C[C@H]1c1ncc(-c2ccc(-c3ccc(-c4cc5[nH]c([C@@H]6C[C@H](C)CN6C(=O)[C@@H](NC(=O)OC)C(C)C)nc5s4)s3)cc2)[nH]1)C(C)C | 0.004 nM | 0.017 nM | 13300 nM | remaining at 0.5 h, 5 µM [4]: 100%; remaining at 0.5 h, 5 µM [5]: 100%; IC50 (Cytochrome P450 3A4): > 30000 nM; IC50 (Cytochrome P450 2C9): 21000 nM; IC50 (Cytochrome P450 2D6): > 30000 nM; IC50 [6]: 25100 nM; clearance [7]: 6.9 mL/min/kg; half-life [8]: 6.7 h; Vd [9]: 3.8 L/kg; AUC(0-t) at 8 h [10]: 440 ng·h/mL; half-life [11]: 9.8 h; Cmax [12]: 10 ng/mL; bioavailability [13]: 11% |
| COC(=O)N[C@H](C(=O)N1C[C@@H](C)C[C@H]1c1ncc(-c2ccc(-c3cc4sc(-c5cc6[nH]c([C@@H]7C[C@H](C)CN7C(=O)[C@@H](NC(=O)OC)C(C)C)nc6s5)cc4s3)cc2)[nH]1)C(C)C | 0.012 nM | 0.053 nM | > 20000 nM | – |
| COC(=O)N[C@H](C(=O)N1C[C@@H](C)C[C@H]1c1ncc(-c2ccc(-c3ccc(-c4cc5[nH]c([C@@H]6C[C@H](C)CN6C(=O)[C@@H](NC(=O)OC)C(C)C)nc5s4)cc3F)cc2)[nH]1)C(C)C | 0.006 nM | 0.023 nM | 20000 nM | – |
| COC(=O)N[C@H](C(=O)N1C[C@@H](C)C[C@H]1c1nc2cc(C#Cc3cc4[nH]c([C@@H]5C[C@H](C)CN5C(=O)[C@@H](NC(=O)OC)C(C)C)nc4s3)ccc2[nH]1)C(C)C | 0.011 nM | 39 nM | – | – |
| COC(=O)N[C@H](C(=O)N1C[C@@H](C)C[C@H]1c1ncc(-c2ccc(-c3ccc(-c4cc5[nH]c([C@@H]6C[C@H](C)CN6C(=O)[C@@H](NC(=O)OC)C(C)C)nc5s4)c(C)c3)cc2)[nH]1)C(C)C | 0.004 nM | 0.037 nM | > 20000 nM | – |
| COC(=O)N[C@H](C(=O)N1C[C@@H](C)C[C@H]1c1nc2cc(-c3ccc(-c4cc5[nH]c([C@@H]6C[C@H](C)CN6C(=O)[C@@H](NC(=O)OC)C(C)C)nc5s4)cc3)ccc2[nH]1)C(C)C | – | 0.6 nM | > 20000 nM | – |
| COC(=O)N[C@H](C(=O)N1C[C@@H](C)C[C@H]1c1ncc(-c2ccc(-c3ccc(-c4cc5[nH]c([C@@H]6C[C@H](C)CN6C(=O)[C@@H](NC(=O)OC)C(C)C)nc5s4)cc3C)cc2)[nH]1)C(C)C | 0.002 nM | 0.037 nM | 19200 nM | – |
| COC(=O)N[C@H](C(=O)N1C[C@@H](C)C[C@H]1c1cn2ccc(-c3ccc(-c4cc5[nH]c([C@@H]6C[C@H](C)CN6C(=O)[C@@H](NC(=O)OC)C(C)C)nc5s4)cc3)cc2n1)C(C)C | 0.041 nM | 0.3 nM | 15300 nM | – |
